Assay results: paper PMC5391474, “Investigation of the Role of Protein Kinase D in Human Rhinovirus Replication” (Journal of Virology, 2017)

What was measured:
Assay in all cases: biochemical
Parameters in all cases: in vitro kinase selectivity panel, protein and lipid kinases, single concentration, ATP at Km
Details in all cases: ATP at Km
EphB4(h) = EphB4(h) (Homo sapiens, UniProt P54760)
In short: (§1)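 Single-point screen against a protein and lipid kinase panel: inhibitor at 1 μM. ATP concentration for every kinase equivalent to its Km.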

CDK1/cyclinB(h) = CDK1/cyclinB(h) (Homo sapiens, UniProt P06493)
Chain of CDK1/cyclinB(h) (P06493 whole entry): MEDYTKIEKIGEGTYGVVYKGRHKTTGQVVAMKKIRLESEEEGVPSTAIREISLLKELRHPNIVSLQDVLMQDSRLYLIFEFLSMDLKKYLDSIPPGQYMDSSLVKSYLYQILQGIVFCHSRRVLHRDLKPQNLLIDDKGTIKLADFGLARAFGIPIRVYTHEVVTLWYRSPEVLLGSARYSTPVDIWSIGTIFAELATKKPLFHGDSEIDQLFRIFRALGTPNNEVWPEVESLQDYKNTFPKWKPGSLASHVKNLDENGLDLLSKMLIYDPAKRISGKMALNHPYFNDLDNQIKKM
Chain of CDK1/cyclinB(h) (P14635 whole entry partner): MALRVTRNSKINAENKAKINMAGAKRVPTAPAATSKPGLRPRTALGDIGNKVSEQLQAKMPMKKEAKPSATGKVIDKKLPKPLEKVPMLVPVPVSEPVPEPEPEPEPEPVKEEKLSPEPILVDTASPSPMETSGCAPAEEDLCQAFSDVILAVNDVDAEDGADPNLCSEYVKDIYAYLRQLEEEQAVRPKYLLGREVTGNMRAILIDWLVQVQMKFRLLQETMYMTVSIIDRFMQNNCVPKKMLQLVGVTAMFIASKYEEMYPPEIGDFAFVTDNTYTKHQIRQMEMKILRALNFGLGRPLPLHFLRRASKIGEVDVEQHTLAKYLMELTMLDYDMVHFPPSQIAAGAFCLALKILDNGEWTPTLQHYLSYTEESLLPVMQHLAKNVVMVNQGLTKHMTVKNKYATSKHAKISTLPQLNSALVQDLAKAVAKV
In short: as §1

PKCι(h) = molecular target: T1, PKCι(h) (Homo sapiens, UniProt P41743)
T1 construct: gene PRKCI
In short: as §1

KDR(h) = KDR(h) (Homo sapiens, UniProt P35968)
Chain of KDR(h) (P35968 whole entry): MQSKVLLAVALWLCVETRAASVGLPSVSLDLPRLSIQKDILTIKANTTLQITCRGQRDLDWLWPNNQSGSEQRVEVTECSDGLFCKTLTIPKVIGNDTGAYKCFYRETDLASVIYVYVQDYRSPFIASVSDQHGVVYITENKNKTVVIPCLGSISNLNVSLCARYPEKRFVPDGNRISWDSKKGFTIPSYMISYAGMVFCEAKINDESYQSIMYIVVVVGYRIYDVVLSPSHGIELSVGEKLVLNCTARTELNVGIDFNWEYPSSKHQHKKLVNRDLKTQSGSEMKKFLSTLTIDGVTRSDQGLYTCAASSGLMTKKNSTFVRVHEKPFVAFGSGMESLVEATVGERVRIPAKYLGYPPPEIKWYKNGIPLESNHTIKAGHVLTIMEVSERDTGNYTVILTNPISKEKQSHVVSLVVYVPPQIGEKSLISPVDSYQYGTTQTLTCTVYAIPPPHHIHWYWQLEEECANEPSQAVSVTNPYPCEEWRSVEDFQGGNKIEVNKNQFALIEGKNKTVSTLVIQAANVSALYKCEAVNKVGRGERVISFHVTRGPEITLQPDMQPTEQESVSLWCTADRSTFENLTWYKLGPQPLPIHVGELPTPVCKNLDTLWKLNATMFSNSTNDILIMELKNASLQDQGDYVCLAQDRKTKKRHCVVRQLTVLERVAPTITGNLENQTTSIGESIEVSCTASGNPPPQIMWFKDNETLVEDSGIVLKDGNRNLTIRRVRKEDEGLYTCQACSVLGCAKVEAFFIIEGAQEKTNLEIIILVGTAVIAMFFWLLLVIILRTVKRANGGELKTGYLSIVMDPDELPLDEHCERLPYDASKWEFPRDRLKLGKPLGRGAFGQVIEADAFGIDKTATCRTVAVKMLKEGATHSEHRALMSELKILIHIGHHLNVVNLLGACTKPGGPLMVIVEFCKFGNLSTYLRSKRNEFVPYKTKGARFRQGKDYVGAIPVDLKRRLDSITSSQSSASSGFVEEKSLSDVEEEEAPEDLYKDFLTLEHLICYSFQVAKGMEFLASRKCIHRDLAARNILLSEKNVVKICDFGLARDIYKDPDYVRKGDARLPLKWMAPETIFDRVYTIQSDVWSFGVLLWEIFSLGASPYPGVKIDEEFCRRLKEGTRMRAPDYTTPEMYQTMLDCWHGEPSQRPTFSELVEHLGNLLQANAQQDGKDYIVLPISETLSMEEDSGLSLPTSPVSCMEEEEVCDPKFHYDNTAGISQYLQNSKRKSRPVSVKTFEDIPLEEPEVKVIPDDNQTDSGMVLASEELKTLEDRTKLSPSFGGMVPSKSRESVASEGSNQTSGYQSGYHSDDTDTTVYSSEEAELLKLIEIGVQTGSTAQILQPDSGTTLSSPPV
In short: as §1

LIMK1(h) = LIMK1(h) (Homo sapiens, UniProt P53667)
Chain of LIMK1(h) (P53667 whole entry): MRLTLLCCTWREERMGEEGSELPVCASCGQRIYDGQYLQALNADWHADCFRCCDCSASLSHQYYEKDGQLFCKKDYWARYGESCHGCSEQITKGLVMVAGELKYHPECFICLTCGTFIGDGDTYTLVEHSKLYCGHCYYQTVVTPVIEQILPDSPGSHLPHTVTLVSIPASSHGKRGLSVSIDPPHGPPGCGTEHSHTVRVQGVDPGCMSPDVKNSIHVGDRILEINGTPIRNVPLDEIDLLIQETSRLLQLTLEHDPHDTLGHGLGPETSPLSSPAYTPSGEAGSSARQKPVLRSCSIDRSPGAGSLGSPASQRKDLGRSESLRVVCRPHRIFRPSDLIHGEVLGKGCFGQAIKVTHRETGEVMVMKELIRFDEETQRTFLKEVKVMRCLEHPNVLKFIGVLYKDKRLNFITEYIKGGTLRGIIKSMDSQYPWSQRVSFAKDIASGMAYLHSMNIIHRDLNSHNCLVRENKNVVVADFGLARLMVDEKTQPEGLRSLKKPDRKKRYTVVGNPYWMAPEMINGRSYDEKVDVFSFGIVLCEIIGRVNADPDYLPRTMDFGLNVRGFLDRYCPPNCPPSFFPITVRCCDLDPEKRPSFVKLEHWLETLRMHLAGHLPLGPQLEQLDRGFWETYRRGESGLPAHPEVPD
In short: as §1

TAK1(h) = molecular target: T2, TAK1(h) (Homo sapiens, UniProt O43318)
T2 construct: gene MAP3K7
T2 sequence (O43318 whole entry): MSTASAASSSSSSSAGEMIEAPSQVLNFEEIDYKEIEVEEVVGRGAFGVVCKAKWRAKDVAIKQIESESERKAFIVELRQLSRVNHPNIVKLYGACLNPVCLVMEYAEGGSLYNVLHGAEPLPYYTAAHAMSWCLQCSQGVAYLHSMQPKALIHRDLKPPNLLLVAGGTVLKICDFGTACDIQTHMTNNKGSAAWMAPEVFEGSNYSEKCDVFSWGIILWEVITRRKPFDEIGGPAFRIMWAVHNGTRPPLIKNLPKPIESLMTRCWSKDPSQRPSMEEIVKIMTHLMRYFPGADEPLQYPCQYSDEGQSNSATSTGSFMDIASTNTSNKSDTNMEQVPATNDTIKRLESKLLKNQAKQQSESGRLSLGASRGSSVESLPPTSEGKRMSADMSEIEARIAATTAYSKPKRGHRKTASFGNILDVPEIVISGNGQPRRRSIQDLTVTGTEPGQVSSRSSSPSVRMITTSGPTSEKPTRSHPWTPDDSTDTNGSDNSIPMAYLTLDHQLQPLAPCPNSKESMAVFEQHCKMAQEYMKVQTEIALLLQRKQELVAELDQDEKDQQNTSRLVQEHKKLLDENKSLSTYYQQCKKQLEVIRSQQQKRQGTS
In short: as §1

GSK3β(h) = molecular target: T3, GSK3β(h) (Homo sapiens, UniProt P49841)
T3 construct: gene GSK3B
In short: as §1

PDGFRα(D842V)(h) = molecular target: T4, PDGFRα(D842V)(h) (Homo sapiens, UniProt P16234, D842V)
T4 construct: gene PDGFRA
In short: as §1

DGKG = DGKG (Homo sapiens, UniProt P49619)
In short: as §1

PKD2(h) = molecular target: T5, PKD2(h) (Homo sapiens, UniProt Q9BZL6)
T5 construct: gene PRKD2
In short: as §1

Aurora-A(h) = molecular target: T6, Aurora-A(h) (Homo sapiens, UniProt O14965)
T6 construct: gene AURKA
T6 sequence (O14965 whole entry): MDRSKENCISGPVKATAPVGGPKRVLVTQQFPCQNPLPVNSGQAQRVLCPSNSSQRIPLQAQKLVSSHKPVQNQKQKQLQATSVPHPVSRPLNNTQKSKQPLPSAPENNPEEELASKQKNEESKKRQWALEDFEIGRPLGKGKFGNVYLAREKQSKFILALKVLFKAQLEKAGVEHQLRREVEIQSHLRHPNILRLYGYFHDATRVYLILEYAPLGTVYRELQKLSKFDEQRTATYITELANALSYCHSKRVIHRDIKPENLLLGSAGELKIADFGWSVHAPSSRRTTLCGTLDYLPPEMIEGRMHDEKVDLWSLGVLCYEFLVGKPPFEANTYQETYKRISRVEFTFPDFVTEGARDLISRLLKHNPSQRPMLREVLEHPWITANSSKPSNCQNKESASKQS
In short: as §1

DAPK1(h) = DAPK1(h) (Homo sapiens, UniProt P53355)
In short: as §1

DGKB = DGKB (Homo sapiens, UniProt Q9Y6T7)
In short: as §1

Abl(T315I)(h) = molecular target: T7, Abl(T315I)(h) (Homo sapiens, UniProt P00519, T315I)
T7 construct: gene ABL1
In short: as §1

CK2(h) = molecular target: T8, CK2(h) (Homo sapiens, UniProt P68400)
T8 construct: gene CSNK2A1
In short: as §1

EGFR(L861Q)(h) = EGFR(L861Q)(h) (Homo sapiens, UniProt P00533, L861Q)
Chain of EGFR(L861Q)(h) (P00533 whole entry L861Q): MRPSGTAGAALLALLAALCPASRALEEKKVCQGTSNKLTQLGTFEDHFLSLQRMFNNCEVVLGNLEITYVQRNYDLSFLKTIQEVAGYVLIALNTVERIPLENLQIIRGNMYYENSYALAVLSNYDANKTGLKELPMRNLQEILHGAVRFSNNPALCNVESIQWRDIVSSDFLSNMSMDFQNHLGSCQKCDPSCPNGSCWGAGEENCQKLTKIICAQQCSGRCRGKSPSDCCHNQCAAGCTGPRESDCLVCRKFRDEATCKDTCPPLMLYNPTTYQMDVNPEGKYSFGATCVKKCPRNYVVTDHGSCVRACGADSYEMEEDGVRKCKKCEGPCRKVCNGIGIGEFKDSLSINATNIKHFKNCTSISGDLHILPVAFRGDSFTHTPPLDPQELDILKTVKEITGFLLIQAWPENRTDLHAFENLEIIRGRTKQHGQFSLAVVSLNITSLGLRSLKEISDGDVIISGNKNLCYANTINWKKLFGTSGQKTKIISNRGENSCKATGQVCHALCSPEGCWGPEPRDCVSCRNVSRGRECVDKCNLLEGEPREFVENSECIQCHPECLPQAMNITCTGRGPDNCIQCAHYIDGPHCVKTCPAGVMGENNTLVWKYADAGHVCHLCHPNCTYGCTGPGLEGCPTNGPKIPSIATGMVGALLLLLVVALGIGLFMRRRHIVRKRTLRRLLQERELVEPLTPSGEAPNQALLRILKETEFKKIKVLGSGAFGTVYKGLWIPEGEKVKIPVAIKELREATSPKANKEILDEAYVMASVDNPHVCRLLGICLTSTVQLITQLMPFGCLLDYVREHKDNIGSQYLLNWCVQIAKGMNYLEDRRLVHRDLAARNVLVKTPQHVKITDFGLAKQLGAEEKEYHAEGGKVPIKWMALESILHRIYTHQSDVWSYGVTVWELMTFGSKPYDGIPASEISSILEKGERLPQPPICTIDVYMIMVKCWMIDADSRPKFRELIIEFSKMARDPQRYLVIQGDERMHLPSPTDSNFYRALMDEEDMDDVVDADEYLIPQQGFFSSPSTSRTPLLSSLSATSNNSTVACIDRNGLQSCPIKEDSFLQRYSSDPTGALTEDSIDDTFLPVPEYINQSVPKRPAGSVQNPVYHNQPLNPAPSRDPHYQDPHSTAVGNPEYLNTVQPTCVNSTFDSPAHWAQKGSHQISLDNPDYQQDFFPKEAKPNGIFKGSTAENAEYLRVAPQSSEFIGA
In short: as §1

ZAP-70(h) = molecular target: T9, ZAP-70(h) (Homo sapiens, UniProt P43403)
T9 construct: gene ZAP70
In short: as §1

For `CC[C@@H](N)CNc1ccnc(-c2cc(-c3cnn(C)c3)ccc2O)n1` [CRT0066101], which inhibition at 1 µM (EphB4(h)) is on record?
The inhibition at 1 µM was 25%.

And the inhibition at 1 µM (CDK1/cyclinB(h))?
Its inhibition at 1 µM is 63%.

And the inhibition at 1 µM (PKCι(h))?
Its inhibition at 1 µM is 10%.

And the inhibition at 1 µM (KDR(h))?
Its inhibition at 1 µM is 13%.

What about the inhibition at 1 µM (LIMK1(h)) of the same compound?
Its inhibition at 1 µM is 0%.

And the inhibition at 1 µM (TAK1(h))?
Its inhibition at 1 µM is -6%.

And the inhibition at 1 µM (GSK3β(h))?
Its inhibition at 1 µM is 18%.

And the inhibition at 1 µM (PDGFRα(D842V)(h))?
Its inhibition at 1 µM is 61%.

And the inhibition at 1 µM (DGKG)?
Its inhibition at 1 µM is -3%.

What about the inhibition at 1 µM (PKD2(h)) of the same compound?
The inhibition at 1 µM was 96%.

And the inhibition at 1 µM (Aurora-A(h))?
The inhibition at 1 µM was -1%.

What about the inhibition at 1 µM (DAPK1(h)) of the same compound?
The inhibition at 1 µM was -8%.

And the inhibition at 1 µM (DGKB)?
The inhibition at 1 µM was -9%.

And the inhibition at 1 µM (Abl(T315I)(h))?
Its inhibition at 1 µM is 5%.

And the inhibition at 1 µM (CK2(h))?
The inhibition at 1 µM was 19%.

What about the inhibition at 1 µM (EGFR(L861Q)(h)) of the same compound?
Its inhibition at 1 µM is 10%.

What about the inhibition at 1 µM (ZAP-70(h)) of the same compound?
The inhibition at 1 µM was -19%.
